Test results as given in publication PMC10876669, “Substrate promiscuity of inositol 1,4,5-trisphosphate kinase driven by structurally-modified ligands and active site plasticity” (Nature Communications, 2024).
Several values for one entry are separate records, joined by “and”; a condition that tells them apart may be missing. Equal entries are not always repeated.

Columns and labels:
[1] = molecular target: T1, IP3K-KD (human IP3K-KD A isoform, residues 187–461) (Homo sapiens, UniProt P23677); assay: Fluorescence thermal shift analysis (Tycho NT.6, inflection temperature Ti); type: binding; details: for Ti, transition 1 (mean inflection temperature) / Ti, transition 2 (mean inflection temperature): 10 μM IP3K-KD, 100 μM chiral or 200 μM racemic ligand, AMP-PNP or ADP, 100 μM MgCl2; for Ti, transition 1 (mean inflection temperature) / Ti, transition 2 (mean inflection temperature) / ΔTi, transition 1 / ΔTi, transition 2: mean ± SD, n=3; for ΔTi, transition 1: Ti minus Ti of apo IP3K-KD (44.4); for ΔTi, transition 2: Ti minus Ti of apo IP3K-KD (53.8); for Transition 1 Ti, individual measurement / Transition 2 Ti, individual measurement: source data of Fig. 6b/6c, single replicates; for Transition 1 Dti (Ti-Ti Apo) / Transition 1 Ti Mean / Transition 2 DTi (Ti-Ti Apo) / Transition 2 Ti Mean: source data of Fig. 6c, N 3; for Stabilization of IP3K-KD by ligand (in words): thermal shift, Fig. 6c; for Binding to IP3K (in words): Fig. 6b,c
T1 construct: human IP3K-KD A isoform (residues 187–461); GST (cleaved yes); made in house; host or cells: Escherichia coli BL21 star (DE3)
T1 sequence (P23677 187-461): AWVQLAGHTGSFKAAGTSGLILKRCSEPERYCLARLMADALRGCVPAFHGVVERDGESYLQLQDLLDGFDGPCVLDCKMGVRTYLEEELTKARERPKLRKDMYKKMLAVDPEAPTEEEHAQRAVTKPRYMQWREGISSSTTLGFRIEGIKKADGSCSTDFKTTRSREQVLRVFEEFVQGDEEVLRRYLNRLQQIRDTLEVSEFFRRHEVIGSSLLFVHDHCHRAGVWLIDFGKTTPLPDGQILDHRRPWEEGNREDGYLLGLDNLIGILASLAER
Experimental: (§1) A construct encoding human IP3K-KD A isoform (residues 187–461) into pOPTG vector was used[16]. The protein was expressed in Escherichia coli BL21 star (DE3) strain. Cells were grown at 37 °C to OD600 = 1.0 then induced with 0.4 mM IPTG for 18 h at 16 °C. Protein purification was performed by adapting the reported protocol. Cells were resuspended in buffer A (10 mM Tris pH 7.5 [4 °C], 200 mM NaCl and 2 mM DTT) and disrupted by sonication. Clarified cell lysate was diluted 1/4 in buffer B (10 mM Tris pH 7.5 [4 °C] and 2 mM DTT) and loaded into a 5 mL HiTrap heparin column (GE Healthcare) washed by buffer C (20 mM Tris pH 7.5, 50 mM NaCl and 2 mM DTT), and eluted with a 0.05 M–1 M salt gradient. The eluted sample was subsequently loaded on to a 5 mL glutathione–Sepharose HP column (GE Healthcare), washed with buffer A and eluted with reduced glutathione 10 mM (Sigma-Aldrich) in buffer A. The GST tag was cleaved with home-made TEV (tobacco etch virus) protease overnight at 4 °C, (1:40 TEV/protein mass ratio). After glutathione removal with a PD10 column, the cleaved protein was further purified using a 5 mL glutathione–Sepharose HP column (GE Healthcare) followed by gel filtration on a 16/600 Superdex200 (GE Healthcare) column equilibrated in buffer D (20 mM Tris pH 7.5 [4 °C], 0.05 M (NH4)2SO4 and 2 mM DTT). Protein samples were analyzed by SDS/PAGE, concentrated around 18 mg/mL and stored at −80 °C until use.
Thermal protein denaturation was documented by recording intrinsic protein fluorescence at 330 and 350 nm wavelengths. The fluorescence recorded in each thermal run is plotted as 350/330 nm ratio and used to calculate the Inflection Temperature (Ti). Ti is the temperature at which a protein undergoes a transition in its folding state. This calculation is performed automatically by the Tycho NT.6 software. The protocol optimized for this procedure, involves a heating time of 2 min, a sample volume of 10 μl placed in a very thin capillary, and a temperature ramp from 35 °C (308 K) to 95 °C (368 K). For the experiment, IP3K-KD was diluted with buffer D to achieve a concentration of 0.31 mg/mL (10 μM). It was then mixed with 100 μM of chiral ligands or 200 μM of racemic ligands (all synthesized as stated in this work except InsP3 and InsP4 that were commercial from Avanti Polar Lipids), AMP-PNP (substrate analogues) or ADP (product-like ligands) and 100 μM MgCl2. Microsoft Excel was used to calculate and plot ΔTi values and standard deviations.

[2] = molecular target: T1, IP3K-KD (human IP3K-KD A isoform, residues 187–461); assay: Ligand displacement assay: fluorescence polarization (anisotropy) of 2-FITC-InsP3/IP3K-KD complex; type: binding; details: for IC50: 100 nM IP3K-KD, 2 nM 2-FITC-InsP3, 20 mM HEPES pH 7.5, 1 mM EDTA, 50 mM KCl, n=4 replicates, 5-s and 5-p racemic, read-out: IC50, displacement of 2-FITC-InsP3 from IP3K-KD; for Kd: estimated Ki (Kd) from IC50 with [2-FITC-InsP3] 2 nM and its Kd 68 nM, read-out: Kd inferred from IC50 (Cheng and Prusoff)
Experimental: as §1
Binding of a competing/displacing ligand to protein is observed as a decrease in the polarization (anisotropy) of 2-FITC-InsP3. A comparison of the strength of binding of enzyme substrates, analogues and products to IP3K-KD was obtained by measurement of fluorescence polarization (here anisotropy) of 2-FITC-InsP3/IP3K-KD complex. Experimentally, 100 nM IP3K-KD was mixed with 2 nM 2-FITC-InsP3[37] in 20 mM HEPES pH 7.5, 1 mM EDTA and 50 mM KCl with the addition of displacing compounds over a range of 1 nM–50 μM. Assays were analyzed using a ClarioSTAR plate reader and IC50 values determined from fit of the data to a 4-parameter logistic as described. From IC50 values, we have estimated the Ki (Kd) values for the displacing ligands using the equation of Cheng and Prusoff:[69]1 Ki=IC50/1+L/Kd where [L] is the ligand (2-FITC-InsP3) concentration and Kd the dissociation constant for its interaction with IP3K-KD. […] Consequently, the Ki values for the displacing ligands differ trivially from their IC50 values.

IP3K-KD = molecular target: T2, IP3K-KD (Homo sapiens, UniProt P23677); assay: HPLC analysis of IP3K-KD reaction mixtures (substrate test); type: biochemical; details: 150 nM IP3K-KD, 500 μM analogue, 1 mM ATP, 2 h at 30 °C, Fig. 7a
T2 construct: human IP3K-KD A isoform (residues 187–461); GST (cleaved yes); made in house; host or cells: Escherichia coli BL21 star (DE3)
T2 sequence (P23677 187-461): as above
Experimental: as §1

| Ti, transition 1 (mean inflection temperature) [1] | Ti, transition 2 (mean inflection temperature) [1] | ΔTi, transition 1 [1] | ΔTi, transition 2 [1] | Transition 1 Ti, individual measurement [1] | Transition 2 Ti, individual measurement [1] | Transition 1 Dti (Ti-Ti Apo) [1] | Transition 1 Ti Mean [1] | Transition 2 DTi (Ti-Ti Apo) [1] | Transition 2 Ti Mean [1] | IC50 [2] | Kd [2] [µM] | Ability to act as IP3K substrate (in words) (IP3K-KD) | Binding to IP3K (in words) [1] | SMILES | Stabilization of IP3K-KD by ligand (in words) [1] |
| --- | --- | --- | --- | --- | --- | --- | --- | --- | --- | --- | --- | --- | --- | --- | --- |
| 44.5 ± 0.4 ºC | 54.5 ± 0.1 ºC | 0.1 ± 0.5 ºC | 0.7 ± 0.2 ºC | 44.2 and 44.9 and 44.5 | 54.5 (2×) and 54.4 | 0.133 | 44.5 | 0.667 | 54.5 | – | – | – | do not, or barely, bind IP3K | CO[C@@H]1O[C@H](CO)[C@@H](O[C@H]2[C@H](O)[C@H](O)[C@@H](OP(=O)(O)O)[C@H](OP(=O)(O)O)[C@H]2O)[C@H]1OP(=O)(O)O [compound 9, D-chiro-inositol ribophostin] | failure to obtain crystal complexes or observe protein stabilization |
| 44.2 ± 0.2 ºC | 54.1 ± 0.1 ºC | -0.2 ± 0.3 ºC | 0.3 ± 0.2 ºC | 44.2 and 44.1 and 44.4 | 54.1 (2×) and 54.2 | -0.167 | 44.2 | 0.333 | 54.1 | – | – | – | do not, or barely, bind IP3K | CO[C@@H]1O[C@H](CO)[C@@H](O[C@H]2O[C@H](CO)[C@@H](OP(=O)(O)O)[C@H](OP(=O)(O)O)[C@H]2O)[C@H]1OP(=O)(O)O [compound 8, ribophostin] | failure to obtain crystal complexes or observe protein stabilization |
| 53.5 ± 0.2 ºC | 58.8 ± 0.2 ºC | 9.1 ± 0.4 ºC | 5.0 ± 0.3 ºC | 53.7 and 53.3 and 53.5 | 59.0 and 58.6 and 58.7 | 9.1 | 53.5 | 5.0 | 58.8 | 0.06 µM | 0.058 | – | – | O=P(O)(O)O[C@H]1[C@H](O)[C@@H](OP(=O)(O)O)[C@H](OP(=O)(O)O)[C@@H](OP(=O)(O)O)[C@H]1O [InsP4, D-myo-inositol 1,3,4,5-tetrakisphosphate, reference compound] | – |

Further lines, the compound ahead of its results:

| SMILES | Ti, transition 1 (mean inflection temperature) [1] | Ti, transition 2 (mean inflection temperature) [1] | ΔTi, transition 1 [1] | ΔTi, transition 2 [1] | Transition 1 Ti, individual measurement [1] | Transition 2 Ti, individual measurement [1] | Transition 1 Dti (Ti-Ti Apo) [1] | Transition 1 Ti Mean [1] | Transition 2 DTi (Ti-Ti Apo) [1] | Transition 2 Ti Mean [1] | IC50 [2] | Kd [2] [µM] | Ability to act as IP3K substrate (in words) (IP3K-KD) | Binding to IP3K (in words) [1] | Stabilization of IP3K-KD by ligand (in words) [1] |
| --- | --- | --- | --- | --- | --- | --- | --- | --- | --- | --- | --- | --- | --- | --- | --- |
| O=P(O)(O)O[C@@H]1[C@H](O)[C@@H](O)[C@@H](OP(=O)(O)O)[C@H](OP(=O)(O)O)[C@H]1O [4-s, L-chiro-inositol 2,3,5-trisphosphate] | 51.7 ± 0.1 ºC | 57.3 ± 0.1 ºC | 7.3 ± 0.3 ºC | 3.5 ± 0.2 ºC | 51.8 and 51.7 (2×) | 57.2 and 57.3 (2×) | 7.3 | 51.7 | 3.5 | 57.3 | – | – | – | – | – |
| O=P(O)(O)O[C@H]1O[C@H](CO)[C@@H](OP(=O)(O)O)[C@H](OP(=O)(O)O)[C@H]1O [6b–s, α-D-glucopyranosyl 1,3,4-trisphosphate] | 45.7 ± 0.5 ºC | 54.6 ± 0.0 ºC | 1.3 ± 0.6 ºC | 0.8 ± 0.2 ºC | 45.5 and 46.3 and 45.3 | 54.6 | 1.3 | 45.7 | 0.8 | 54.6 | 8.98 µM | 8.72 | weaker substrates | – | stabilize IP3K-KD much less than InsP3 |
| O=P(O)(O)O[C@@H]1[C@@H](O)[C@H](OP(=O)(O)O)C[C@@H](O)[C@H]1OP(=O)(O)O [3-s, D-3-deoxy-myo-inositol 1,4,6-trisphosphate] | 52.0 ± 0.2 ºC | 57.4 ± 0.1 ºC | 7.6 ± 0.3 ºC | 3.6 ± 0.2 ºC | 52.1 and 51.8 and 52.0 | 57.4 (2×) and 57.5 | 7.6 | 52.0 | 3.6 | 57.4 | – | – | – | – | – |
| O=P(O)(O)O[C@@H]1[C@@H](O)[C@@H](O)[C@@H](OP(=O)(O)O)[C@H](OP(=O)(O)O)[C@H]1O [2-s, D-myo-inositol 1,4,6-trisphosphate] | 53.1 ± 0.3 ºC | 58.4 ± 0.2 ºC | 8.7 ± 0.4 ºC | 4.6 ± 0.2 ºC | 53.1 and 52.8 and 53.3 | 58.2 and 58.5 and 58.4 | 8.7 | 53.1 | 4.6 | 58.4 | – | – | – | – | – |
| O=P(O)(O)O[C@@H]1[C@@H](O)[C@H](OP(=O)(O)O)[C@@H](OP(=O)(O)O)[C@H](OP(=O)(O)O)[C@H]1O [1-p, scyllo-inositol 1,2,3,5-tetrakisphosphate] | 54.7 ± 0.2 ºC | 59.9 ± 0.2 ºC | 10.3 ± 0.3 ºC | 6.1 ± 0.2 ºC | 54.7 and 54.9 and 54.6 | 59.7 and 60.0 and 59.9 | 10.3 | 54.7 | 6.1 | 59.9 | 0.051 µM | 0.05 | – | – | – |
| O=P(O)(O)O[C@@H]1[C@H](O)[C@H](O)[C@@H](OP(=O)(O)O)[C@H](OP(=O)(O)O)[C@H]1O [InsP3, D-myo-inositol 1,4,5-trisphosphate, reference compound] | 52.9 ± 0.2 ºC | 58.2 ± 0.2 ºC | 8.5 ± 0.3 ºC | 4.4 ± 0.2 ºC | 52.8 and 52.9 and 53.1 | 58.1 (2×) and 58.4 | 8.5 | 52.9 | 4.4 | 58.2 | 0.14 µM and 0.139 µM | 0.136 | – | – | – |
